# Measurements as given in US8551939B2, “Peptide analogues, particularly for the treatment of chronic pain” (Instytut Medycyny Doswiadczalnej I Klinicznej, priority 2008, dated 2013).
# Where a SMILES comes first, the peptide text is derived from it. [ ]: non-standard residue; d: D form.
# Columns and labels:
# Type in all cases: in vivo
# [1] = system: mice with inflammation due to tumour take; assay: Oncogenic pain model (murine melanoma cells into the hind leg), tail immersion in 55° C. water; conditions: two weeks of melanoma tumour development, intraperitoneal, 30 mg/kg
# Protocol: In an animal oncogenic pain model, in mice, inflammation was induced via the administration of about a million murine melanoma cells into the hind leg. After two days we observed increasing inflammation due to tumour take. After two weeks of tumour development we examined the effect of Tyrosyl-D-arginyl-phenylalanyl-phenylalanyl-lysyl-lysyl-prolyl-tyrosyl-isoleucyl-leucine against acute pain elicited by tail immersion in 55° C. water.
# mice with inflammation = assay: Tail immersion (55° C.) acute pain test in mice with Freund's adjuvant induced paw inflammation; conditions: one week after Freund's adjuvant into the paw, intravenous, 20 mg/kg
# Protocol: Inflammation was induced in mice by administering Freund's adjuvant into the paw. Inflammation was observed within two days. After a week, we examined the analgesic activity of the peptide analogue Tyrosyl-D-lysyl-phenylalanyl-phenylalanyl-arginyl-arginyl-prolyl-tyrosyl-isoleucyl-leucine against acute pain elicited by immersion of the tail into 55° C.
# rats = assay: Analgesic activity against thermal pain after administration into the subarachnoid space via cannulae; conditions: subarachnoid cannula
# From the text: Two weeks prior to the experiment, rats were implanted with cannulae into the subarachnoid space. On the day of the experiment we examined analgesic activity by administering the peptide Tyrosyl-D-lysyl-phenylalanyl-phenylalanyl-lysyl-lysyl-prolyl-tyrosyl-isoleucyl-leucine.
structure (smiles),measurement,setting,value
CC[C@H](C)[C@H](NC(=O)[C@H](Cc1ccc(O)cc1)NC(=O)[C@@H]1CCCN1C(=O)[C@H](CCCCN)NC(=O)[C@H](CCCCN)NC(=O)[C@H](Cc1ccccc1)NC(=O)[C@H](Cc1ccccc1)NC(=O)[C@@H](CCCNC(=N)N)NC(=O)[C@@H](N)Cc1ccc(O)cc1)C(=O)N[C@@H](CC(C)C)C(=O)O [Tyrosyl-D-arginyl-phenylalanyl-phenylalanyl-lysyl-lysyl-prolyl-tyrosyl-isoleucyl-leucine] (H-Y[dR]FFKKPYIL-OH),effect against acute pain elicited by tail immersion in 55° C. water,[1],complete analgesis
CC[C@H](C)[C@H](NC(=O)[C@H](Cc1ccc(O)cc1)NC(=O)[C@@H]1CCCN1C(=O)[C@H](CCCNC(=N)N)NC(=O)[C@H](CCCNC(=N)N)NC(=O)[C@H](Cc1ccccc1)NC(=O)[C@H](Cc1ccccc1)NC(=O)[C@@H](CCCCN)NC(=O)[C@@H](N)Cc1ccc(O)cc1)C(=O)N[C@@H](CC(C)C)C(=O)O [Tyrosyl-D-lysyl-phenylalanyl-phenylalanyl-arginyl-arginyl-prolyl-tyrosyl-isoleucyl-leucine] (H-Y[dK]FFRRPYIL-OH),analgesic activity against acute pain elicited by immersion of the tail into 55° C.,mice with inflammation,complete analgesis
CC[C@H](C)[C@H](NC(=O)[C@H](Cc1ccc(O)cc1)NC(=O)[C@@H]1CCCN1C(=O)[C@H](CCCCN)NC(=O)[C@H](CCCCN)NC(=O)[C@H](Cc1ccccc1)NC(=O)[C@H](Cc1ccccc1)NC(=O)[C@@H](CCCCN)NC(=O)[C@@H](N)Cc1ccc(O)cc1)C(=O)N[C@@H](CC(C)C)C(=O)O [Tyrosyl-D-lysyl-phenylalanyl-phenylalanyl-lysyl-lysyl-prolyl-tyrosyl-isoleucyl-leucine] (H-Y[dK]FFKKPYIL-OH),change of analgesic effect on repeated administration (tolerance),rats; daily dose of 5 mg,no changes in the extensive analgesic effect
same,analgesic activity against thermal pain,rats; dose of 5 mg,complete analgesis
same,duration of complete analgesis against thermal pain,rats; dose of 5 mg,1 h
